Data taken from patent US20200032347A1, “RNA profiling for individualized diet and treatment advice” (Stichting Katholieke Universiteit, priority 2017, published 2020).

Experiments:
SKRC-17 cells = assay: Cell proliferation assay (SRB, cellular protein content); assay type: cell-based, human; settings: proliferation assays
Method: (§1) Cellular protein content was determined as a measure of cell proliferation, using suforhodamine B (SRB) assays as described in (83). Sensitivity to EGCG was determined by adding a concentration range of EGCG (0-50 μM) or DMSO solvent one day after seeding 1,000 cells per well in 96-wells plates (Nunc, Roskilde, Denmark). An SRB assay was performed after 3 days, and IC50 values were determined in GraphPad Prism using the sigmoidal dose response with variable slope nonlinear regression analysis.
(§2) Furthermore cell proliferation over 8 days in presence or absence of EGCG was determined. Cells were seeded at 1,000 cells per well and at day 1 and day 5 after seeding the medium was changed for medium with or without 10 μM EGCG. Controls were incubated with DMSO. Protein content was determined every 2 days. Experiments were performed in triplicate and statistical significance was determined using one-way ANOVA with bonferroni correction.

SKRC-7 cells = assay: as above; assay type: cell-based, human; settings: proliferation assays
Method: as §1, §2

## NC(=O)c1ccc(N)nc1 [Compound 6-AN, 6-aminonicotinamide]
SKRC-17 cells
  cell proliferation response: significantly decreased cell proliferation
SKRC-7 cells
  cell proliferation response: increase of cell proliferation
